Measured values published in ChEMBL document CHEMBL5136961, “Deglycase-activity oriented screening to identify DJ-1 inhibitors” (RSC Med Chem, 2021).

Biological target: T1, Parkinson disease protein 7 (Homo sapiens, UniProt Q99497)
T1 sequence (Q99497 whole entry): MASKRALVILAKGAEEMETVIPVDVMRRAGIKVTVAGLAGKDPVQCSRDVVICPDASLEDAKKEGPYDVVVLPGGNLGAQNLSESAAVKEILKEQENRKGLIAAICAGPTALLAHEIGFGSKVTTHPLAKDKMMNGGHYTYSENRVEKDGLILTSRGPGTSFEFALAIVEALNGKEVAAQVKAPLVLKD
Test: Inhibition of pET3a-His-tagged DJ1 (unknown origin) expressed in Escherichia coli BL21 assessed as decrease in esterase activity using DiFMUAc as substrate

| IC50 [nM] | SMILES |
| --- | --- |
| 676 | Cc1ccc(CN2C(=O)C(=O)c3cc(Br)cc(Br)c32)cc1 |
| 701 | O=C1C(=O)N(CCc2ccccc2)c2ccccc21 |
| 267 | COc1ccc(CN2C(=O)C(=O)c3cc(Br)cc(Br)c32)cc1 |
| 62.6 | O=C1C(=O)N(CCc2ccccc2)c2c(Br)cc(Br)cc21 |
| 2930 | COc1ccc2c(c1)C(=O)C(=O)N2CCc1ccccc1 |
| 118 | O=C1C(=O)N(CCc2ccccc2)c2ccc(F)cc21 |
| 118 | CCN1C(=O)C(=O)c2cc(F)ccc21 |
| 356 | O=C1C(=O)N(CC2(c3ccccc3)CC2)c2ccc(F)cc21 |
| 15000 | O=C1/C(=C/Cl)c2cc(F)ccc2N1CCc1ccccc1 |
| 85 | O=C1C(Cl)c2cc(F)ccc2N1CCc1ccccc1 (stereo not drawn) |
| 1700 | O=C1N(CCc2ccccc2)c2ccc(F)cc2C1(Cl)Cl |
| 851 | CC(C)(C)CCN1C(=O)C(=O)c2cc(F)ccc21 |
| 700 | O=C1C(F)c2cc(F)ccc2N1CCc1ccccc1 (stereo not drawn) |
| 2350 | O=C(O)Cc1ccc2c(c1)N(CCc1ccccc1)C(=O)C2=O |
| 54.6 | COc1cc(F)cc2c1N(CCc1ccccc1)C(=O)C2=O |
| 180 | O=C1C=C(CCc2ccccc2)c2ccccc2C1=O |
| 9790 | O=C(O)c1ccc2c(c1)C(=O)C(=O)N2CCc1ccccc1 |
| 510 | C#CCOc1cc2ccccc2cc1C(=O)NC1=CC(=O)C2OC2C1O (stereo not drawn) |
